Experimental data published in patent US20050197331A1, “Novel anti-inflammatory and analgesic heterocyclic amidines that inhibit nitrogen oxide (NO) production” (ROTTAPHARM SPA, priority 2004, published 2005).
Read-outs that look alike come from different tables or passages of the source.

Key:
[1] = test system: rabbit articular chondrocytes; experiment: Cellular toxicity on rabbit articular chondrocytes; assay type: cell-based; settings: noted beside IN in Table 3
Experimental: (§1) a) The inhibitory activity on the formation of NO measured as NO2^− (nitrite) and PGE2 was studied in vitro on culture media of rabbit articular chondrocytes stimulated with the cytokine IL-1β (1 ng/ml) for 48 hours. For the preparation of the chondrocytes, the method described by Berenbaum et al. [FEBS Letters 340, 51-55 (1994)] was followed. Briefly, fragments of cartilage removed aseptically from the articular heads of rabbit shoulder, hip and knee were finely ground and digested at 37° C. in hyaluronidase, trypsin and collagenase solutions, giving, after filtration through sterile gauze and centrifugation at 600×g and suitable dilution with 10% DMEM-FCS 10%, a concentration per well of about 1×10^5 cells. The cells were maintained under these conditions until confluent (about 15 days), the medium being replaced every 3 days. At this point, the test products dissolved in the medium were added to each sample and, after 20 minutes, 350 μl of IL-1β were added, to give a final concentration of 1 ng/ml. The stimulation lasted 48 hours at 37° C. (incubation in air/7% CO2). A nitrite assay was subsequently performed on the cell supernatant, as described by Green et al. [Anal. Biochem. 126, 131-138 (1982)], and of PGE2 by RIA assay. The results obtained are shown in Table 3, in which is given, for a number of the compounds that are the subject of the invention and that are already illustrated in Table 1, the IC50, i.e. the concentration (micromolar) of antagonist capable of inhibiting the formation of nitrites and PGE2 by 50% relative to the control group, i.e. relative to the cells stimulated with IL-1β but without addition of antagonists.

PGE2 = experiment: Inhibition of PGE2 formation in rabbit articular chondrocytes stimulated with IL-1β (RIA); assay type: cell-based; settings: for IC50: Oryctolagus cuniculus, Chondrocyte
Experimental: as §1

IL-6 = experiment: Inhibition of IL-6 expression (mRNA) in SW 1353 cells stimulated with IL-1β, Real Time PCR; assay type: cell-based; settings: Homo sapiens, SW1353; SW 1353 cells stimulated for 6 hours with IL-1β
Source text: In practice, the RNA extracted from the cells was back-transcribed to c-DNA by means of a thermocycler (BioRad—“iCycler”) and subsequently amplified via the Real Time PCR technique using a probe and a primer specific for IL-6, from the company Applied Biosystem, and the thermocycler 7000 Sequence Detection System (Applied Biosystem).
The capacity […] may be considered as large, since the increase in the expression of this cytokine is associated with the physiopathology of various human diseases, for instance Crohn's disease, as described previously.

[2] = test system: formation of NO measured as NO2^− (nitrite); experiment: Inhibition of NO (nitrite) formation in rabbit articular chondrocytes stimulated with IL-1β; assay type: cell-based; settings: Oryctolagus cuniculus, Chondrocyte
Experimental: as §1

[3] = test system: rat paw injected with Zymosan; experiment: Zymosan-induced paw oedema in rats; assay type: in vivo; settings: for anti-inflammatory and anti-hyperalgesic action (in words): Zymosan, administered orally, L-NAME up to maximum dose 50 mg/kg; for Anti-inflammatory activity (oedema) ED30 / Mean (Oedema + Analgesia) ED30: os, 0-6 hours; for Anti-inflammatory activity (oedema) ED30: dose reducing volume increase by 30%; for Mean (Oedema + Analgesia) ED30: mean of oedema and analgesia ED30
Experimental: (§2) This is a phlogogenic agent, consisting of a protein-glycoside complex, extracted from the cell walls of raw yeast, which is capable of inducing rapid degranulation of neutrophils, an increase in the production of TNF-α, interleukin-1 (IL-1), IL-6 and stimulation of NO generation by monocytes and macrophages (ZymosaN:Merck Index XIII ed. No. 10250, p. 1818).
(§3) The experiments consisted of sub-plantar intradermal injection into the animal of 4 mg of Zymosan suspended in 100 μl of sterile physiological solution, while the test compounds were administered orally 30 minutes before injection of the phlogogenic agent.
(§4) Measurement of the inflammation of the injected paw and of the consequent hyperalgesic effects was performed 2, 4 and 6 hours after the administration of Zymosan. The oedema was evaluated as the increase in volume of the injected paw within the period 0-6 hours, relative to the initial value of the volume of the paw, i.e. before the injection of Zymosan (basal value).
The measurements of the variation of the volume of the paw were recorded using a hydroplethysmometer (Mod. 7150, Basile, Italy), which consists of two plastic cuvettes containing a surfactant liquid, the larger one being used for immersion of the paw, connected to the smaller one which contains a transducer capable of recording small displacements of volume of the liquid used for the measurement. The paw is immersed in the cuvettes up to the tibiotarsal joint. The volume of liquid displaced by the paw indicates the magnitude of the inflammation.
For each test compound, at least three doses were used (generally 10, 20 and 40 mg/kg) with at least five animals per group×dose, so as to be able to calculate an ED30, i.e. the dose in mg/kg capable of reducing by 30% the Zymosan-induced volume increase, relative to the group of control animals, i.e. animals injected only with the phlogogenic agent and treated orally with distilled water.

[4] = test system: rat paw injected with Zymosan; experiment: Zymosan-induced mechanical hyperalgesia in rats (Randall-Selitto); assay type: in vivo; settings: os, 0-6 hours, dose increasing pain threshold by 30%
Experimental: as §2, §3, §4
The hyperalgesia induced by the intradermal administration of Zymosan was evaluated on these animals and at the same times described previously for the evaluation of the oedema, using the Randall-Selitto method [Arch. Int. Pharmacodyn. 111, 409 (1957)].
When the animal makes a noise following the pain stimulus, the operator blocks the punch and records the force, expressed in grams, which was applied to the paw (the cut-off value is 500 grams). The difference in the meal chanical pain threshold between the basal value (generally about 230-250 grams) and that recorded at the indicated times after injection of the phlogogenic agent, generally 130-140 g for the control animals 6 hours after injection of the phlogogenic agent, is defined as mechanical hyperalgesia. In this case also, an ED30 was calculated, i.e. the dose in mg/kg capable of increasing the pain threshold by 30% (meal chanical hyperalgesia) in the animals treated with the test compounds relative to the group of control animals.

[5] = rabbit articular chondrocytes, IL-1β 1 ng/ml, 48 hours, RIA, read-out: Inhibition % IC50 PGE2
[6] = rabbit articular chondrocytes, IL-1β 1 ng/ml, 48 hours, RIA
[7] = rabbit articular chondrocytes, IL-1β 1 ng/ml, 48 hours, nitrite in supernatant, read-out: Inhibition % IC50 NO
[8] = rabbit articular chondrocytes stimulated with IL-1β, read-out: IC50, formation of PGE2

IC50 (PGE2; [5]) [µM]	melting point [°C]	IC50 (IL-6) [µM]	IC50 [2, 7] [µM]	IC50 (PGE2; [8]) [µM]	IC50 ([2]; rabbit articular chondrocytes stimulated with IL-1β, read-out: IC50, production of NO) [µM]	Compound	Tox = cellular toxicity (concentration) [1] [µM]	Inhibition % IC50 PGE2 (PGE2; [6])	anti-inflammatory and anti-hyperalgesic action (in words) [3]	Anti-inflammatory activity (oedema) ED30 [3] [mg/kg]	Mean (Oedema + Analgesia) ED30 [3] [mg/kg]	Analgesic activity (mechanical anti-hyperalgesia) ED30 [4] [mg/kg]
1.9	212.2 to 213.5	–	–	–	–	CC(=N)Nc1ccc2nc(-c3ccc(Cl)cc3)sc2c1 [Compound 3, N-[2-(4-chlorophenyl)benzothiazol-6-yl]acetamidine]	30	–	–	–	–	–
–	184.6 to 185.8	–	–	–	–	CC(=N)Nc1ccc2c(c1)cc(-c1ccccc1)n2C [Compound 6, N-(1-methyl-2-phenyl-1H-indol-5-yl)acetamidine]	30	IN (IN = <25% inhibitory activity at 30 × 10^−6M)	–	–	–	–
4.2	177 to 178	1.5 to 6	18	–	–	CC(=N)Nc1ccc2sc(-c3ccccc3)nc2c1 [Compound 9, N-(2-phenylbenzothiazol-5-yl)acetamidine]	–	–	powerful anti-inflammatory and anti-hyperalgesic action	33.9	32.6	31.3
5.9	163 to 165	–	–	–	–	COc1ccccc1-c1nc2cc(NC(C)=N)ccc2s1 [Compound 10, N-[2-(2-methoxyphenyl)benzothiazol-5-yl]acetamidine]	100	–	–	–	–	–
7.4	203 to 204.7	–	–	–	–	COc1ccc(-c2nc3cc(NC(C)=N)ccc3s2)cc1 [Compound 15, N-[2-(4-methoxyphenyl)benzothiazol-5-yl]acetamidine]	30	–	–	–	–	–
–	156.4 to 158.3	–	–	–	–	COc1ccc(-c2nc3cc(NC(C)=N)ccc3s2)c(OC)c1 [Compound 16, N-[2-(2,4-dimethoxyphenyl)benzothiazol-5-yl]acetamidine]	30	IN (IN = <25% inhibitory activity at 30 × 10^−6M)	–	–	–	–
1.3	141.6 to 145.6	–	–	–	–	COc1cccc(-c2nc3cc(NC(C)=N)ccc3s2)c1 [Compound 17, N-[2-(3-methoxyphenyl)benzothiazol-5-yl]acetamidine]	30	–	–	–	–	–
0.5	204.8 to 205.9	1.5 to 6	7.8	0.3 to 0.8	3 to 8	CC(=N)Nc1ccc2oc(-c3ccccc3)cc2c1 [Compound 28, N-(2-phenylbenzofuran-5-yl)acetamidine]	–	–	powerful anti-inflammatory and anti-hyperalgesic action	20.8	22.6	24.4
0.3	183.6 to 185.1	–	–	0.3 to 0.8	–	CC(=N)Nc1ccc2oc(-c3ccc(Cl)cc3)nc2c1 [Compound 30, N-[2-(4-chlorophenyl)benzoxazol-5-yl]acetamidine]	30	–	–	–	–	–
